Test results taken from the NIST ThermoML archive (doi:10.1021/je5009679).

Conditions: Liquid; for viscosity: Concentric cylinders viscometry

CCn1cc[n+](C)c1.CO[PH](=O)[O-] [1-ethyl-3-methylimidazolium methyl phosphonate]
101.33 kPa
Conditions | viscosity [mPa·s]
293.15 K | 156.4
303.15 K | 89.9
313.15 K | 56.11
323.15 K | 37.41
333.15 K | 26.3
343.15 K | 19.32
353.15 K | 14.71
363.15 K | 11.54
373.15 K | 9.289

Conditions | mass density [kg/m3]
293.15 K, 101.33 kPa, Vibrating tube method | 1198.3
303.15 K, 101.33 kPa, Vibrating tube method | 1191.7
311.2 K, 10000 kPa, Bellows volumetry | 1189.6
311.2 K, 20000 kPa, Bellows volumetry | 1193.3
311.2 K, 30000 kPa, Bellows volumetry | 1197.1
311.2 K, 40000 kPa, Bellows volumetry | 1200.8
311.2 K, 50000 kPa, Bellows volumetry | 1204.4
311.2 K, 60000 kPa, Bellows volumetry | 1207.8
311.2 K, 70000 kPa, Bellows volumetry | 1211.3
311.2 K, 80000 kPa, Bellows volumetry | 1214.6
311.2 K, 90000 kPa, Bellows volumetry | 1217.9
311.2 K, 100000 kPa, Bellows volumetry | 1221
311.2 K, 110000 kPa, Bellows volumetry | 1224.2
311.2 K, 120000 kPa, Bellows volumetry | 1227.2
311.2 K, 130000 kPa, Bellows volumetry | 1230.3
311.2 K, 140000 kPa, Bellows volumetry | 1233.1
311.2 K, 150000 kPa, Bellows volumetry | 1236.1
311.2 K, 160000 kPa, Bellows volumetry | 1238.9
311.2 K, 170000 kPa, Bellows volumetry | 1241.7
311.2 K, 180000 kPa, Bellows volumetry | 1244.5
311.2 K, 190000 kPa, Bellows volumetry | 1247.2
311.2 K, 200000 kPa, Bellows volumetry | 1249.9
313.15 K, 101.33 kPa, Vibrating tube method | 1185.3
323.15 K, 101.33 kPa, Vibrating tube method | 1178.8
330.9 K, 10000 kPa, Bellows volumetry | 1176.8
330.9 K, 20000 kPa, Bellows volumetry | 1180.9
330.9 K, 30000 kPa, Bellows volumetry | 1184.9
330.9 K, 40000 kPa, Bellows volumetry | 1188.8
330.9 K, 50000 kPa, Bellows volumetry | 1192.5
330.9 K, 60000 kPa, Bellows volumetry | 1196.1
330.9 K, 70000 kPa, Bellows volumetry | 1199.8
330.9 K, 80000 kPa, Bellows volumetry | 1203.3
330.9 K, 90000 kPa, Bellows volumetry | 1206.6
330.9 K, 100000 kPa, Bellows volumetry | 1210
330.9 K, 110000 kPa, Bellows volumetry | 1213.3
330.9 K, 120000 kPa, Bellows volumetry | 1216.4
330.9 K, 130000 kPa, Bellows volumetry | 1219.5
330.9 K, 140000 kPa, Bellows volumetry | 1222.5
330.9 K, 150000 kPa, Bellows volumetry | 1225.4
330.9 K, 160000 kPa, Bellows volumetry | 1228.3
330.9 K, 170000 kPa, Bellows volumetry | 1231.2
330.9 K, 180000 kPa, Bellows volumetry | 1234
330.9 K, 190000 kPa, Bellows volumetry | 1236.7
330.9 K, 200000 kPa, Bellows volumetry | 1239.6
333.15 K, 101.33 kPa, Vibrating tube method | 1172.5
343.15 K, 101.33 kPa, Vibrating tube method | 1166.1
351.3 K, 10000 kPa, Bellows volumetry | 1164.2
351.3 K, 20000 kPa, Bellows volumetry | 1168.7
351.3 K, 30000 kPa, Bellows volumetry | 1172.8
351.3 K, 40000 kPa, Bellows volumetry | 1176.9
351.3 K, 50000 kPa, Bellows volumetry | 1180.9
351.3 K, 60000 kPa, Bellows volumetry | 1184.7
351.3 K, 70000 kPa, Bellows volumetry | 1188.4
351.3 K, 80000 kPa, Bellows volumetry | 1192
351.3 K, 90000 kPa, Bellows volumetry | 1195.5
351.3 K, 100000 kPa, Bellows volumetry | 1198.9
351.3 K, 110000 kPa, Bellows volumetry | 1202.1
351.3 K, 120000 kPa, Bellows volumetry | 1205.4
351.3 K, 130000 kPa, Bellows volumetry | 1208.7
351.3 K, 140000 kPa, Bellows volumetry | 1211.8
351.3 K, 150000 kPa, Bellows volumetry | 1214.8
351.3 K, 160000 kPa, Bellows volumetry | 1217.8
351.3 K, 170000 kPa, Bellows volumetry | 1220.8
351.3 K, 180000 kPa, Bellows volumetry | 1223.7
351.3 K, 190000 kPa, Bellows volumetry | 1226.6
351.3 K, 200000 kPa, Bellows volumetry | 1229.5
353.15 K, 101.33 kPa, Vibrating tube method | 1159.9
363.15 K, 101.33 kPa, Vibrating tube method | 1153.8
371.3 K, 10000 kPa, Bellows volumetry | 1152.1
371.3 K, 20000 kPa, Bellows volumetry | 1156.2
371.3 K, 30000 kPa, Bellows volumetry | 1161
371.3 K, 40000 kPa, Bellows volumetry | 1165.2
371.3 K, 50000 kPa, Bellows volumetry | 1169.2
371.3 K, 60000 kPa, Bellows volumetry | 1173.3
371.3 K, 70000 kPa, Bellows volumetry | 1177.2
371.3 K, 80000 kPa, Bellows volumetry | 1180.9
371.3 K, 90000 kPa, Bellows volumetry | 1184.5
371.3 K, 100000 kPa, Bellows volumetry | 1188.2
371.3 K, 110000 kPa, Bellows volumetry | 1191.6
371.3 K, 120000 kPa, Bellows volumetry | 1195
371.3 K, 130000 kPa, Bellows volumetry | 1198.3
371.3 K, 140000 kPa, Bellows volumetry | 1201.6
371.3 K, 150000 kPa, Bellows volumetry | 1204.7
371.3 K, 160000 kPa, Bellows volumetry | 1207.9
371.3 K, 170000 kPa, Bellows volumetry | 1210.9
371.3 K, 180000 kPa, Bellows volumetry | 1213.9
371.3 K, 190000 kPa, Bellows volumetry | 1216.8
371.3 K, 200000 kPa, Bellows volumetry | 1219.8
373.15 K, 101.33 kPa, Vibrating tube method | 1147.6
391.2 K, 10000 kPa, Bellows volumetry | 1140.6
391.2 K, 20000 kPa, Bellows volumetry | 1144.9
391.2 K, 30000 kPa, Bellows volumetry | 1149.5
391.2 K, 40000 kPa, Bellows volumetry | 1154
391.2 K, 50000 kPa, Bellows volumetry | 1158.2
391.2 K, 60000 kPa, Bellows volumetry | 1162.3
391.2 K, 70000 kPa, Bellows volumetry | 1166.4
391.2 K, 80000 kPa, Bellows volumetry | 1170.4
391.2 K, 90000 kPa, Bellows volumetry | 1174.1
391.2 K, 100000 kPa, Bellows volumetry | 1177.9
391.2 K, 110000 kPa, Bellows volumetry | 1181.4
391.2 K, 120000 kPa, Bellows volumetry | 1184.9
391.2 K, 130000 kPa, Bellows volumetry | 1188.3
391.2 K, 140000 kPa, Bellows volumetry | 1191.6
391.2 K, 150000 kPa, Bellows volumetry | 1194.9
391.2 K, 160000 kPa, Bellows volumetry | 1198.1
391.2 K, 170000 kPa, Bellows volumetry | 1201.2
391.2 K, 180000 kPa, Bellows volumetry | 1204.2
391.2 K, 190000 kPa, Bellows volumetry | 1207.2
391.2 K, 200000 kPa, Bellows volumetry | 1210.2
411.1 K, 10000 kPa, Bellows volumetry | 1128.7
411.1 K, 20000 kPa, Bellows volumetry | 1133.3
411.1 K, 30000 kPa, Bellows volumetry | 1138.1
411.1 K, 40000 kPa, Bellows volumetry | 1142.8
411.1 K, 50000 kPa, Bellows volumetry | 1147.3
411.1 K, 60000 kPa, Bellows volumetry | 1151.7
411.1 K, 70000 kPa, Bellows volumetry | 1155.8
411.1 K, 80000 kPa, Bellows volumetry | 1159.9
411.1 K, 90000 kPa, Bellows volumetry | 1163.9
411.1 K, 100000 kPa, Bellows volumetry | 1167.6
411.1 K, 110000 kPa, Bellows volumetry | 1171.3
411.1 K, 120000 kPa, Bellows volumetry | 1174.9
411.1 K, 130000 kPa, Bellows volumetry | 1178.4
411.1 K, 140000 kPa, Bellows volumetry | 1181.8
411.1 K, 150000 kPa, Bellows volumetry | 1185.3
411.1 K, 160000 kPa, Bellows volumetry | 1188.5
411.1 K, 170000 kPa, Bellows volumetry | 1191.7
411.1 K, 180000 kPa, Bellows volumetry | 1194.8
411.1 K, 190000 kPa, Bellows volumetry | 1197.9
411.1 K, 200000 kPa, Bellows volumetry | 1201
